Measurements from ChEMBL document CHEMBL3885861, “Open TG-GATES”.

Species on record: Rattus norvegicus
Assay: Open TG-GATES - Regimen: Single
Format: toxicity, organism-based, Sprague-Dawley
Set-up: regimen Single, gender Male, age 6 weeks
Conditions: in vivo, po, 0 mg/kg, route gavage, dose level Control; for APTT / Bas / Eos / Fbg / Hb / Ht / Lym / MCH / MCHC / MCV / Mono / Neu / PT / Plat / RBC / Ret / WBC: tissue Blood; for KIDNEY_L / KIDNEY_R / KIDNEY_TOTAL: tissue Kidney; for LIVER: tissue Liver; for A/G / ALP / ALT / AST / BUN / CRE / Ca / Cl / DBIL / GLC / IP / K / LDH / Na / PL / RALB / TBIL / TC / TG / TP / gamma-GTP: tissue Plasma

CCN1CCCC1CNC(=O)c1cc(S(N)(=O)=O)ccc1OC (configuration not stated) [SULPIRIDE]
TERMINAL_BW (3 h): 201.8 g | APTT (3 h): 17.6 s | Bas (3 h): 0% | Eos (3 h): 0.6% | Fbg (3 h): 247.8 mg/dL | Hb (3 h): 13.4 g/dL | Ht (3 h): 41.4% | Lym (3 h): 80.2% | MCH (3 h): 20.9 pg | MCHC (3 h): 32.3% | MCV (3 h): 64.8 fL | Mono (3 h): 2.4% | Neu (3 h): 16% | PT (3 h): 14.1 s | Plat (3 h): 117.7 x10_4/uL | RBC (3 h): 639.8 x10_4/ul | Ret (3 h): 7.5% | WBC (3 h): 81.5 x10_2/uL | KIDNEY_L (3 h): 0.9 g | KIDNEY_R (3 h): 0.9 g | KIDNEY_TOTAL (3 h): 1.9 g | LIVER (3 h): 8.6 g | A/G (3 h): 0.9 | ALP (3 h): 1902.2 IU/L | ALT (3 h): 49 IU/L | AST (3 h): 92.6 IU/L | BUN (3 h): 10.6 mg/dL | CRE (3 h): 0.2 mg/dL | Ca (3 h): 11 mg/dL | Cl (3 h): 105.8 meq/L | DBIL (3 h): 0.01 mg/dL | GLC (3 h): 177 mg/dL | IP (3 h): 8.9 mg/dL | K (3 h): 4.5 meq/L | LDH (3 h): 173.6 IU/L | Na (3 h): 140.8 meq/L | PL (3 h): 116 mg/dL | RALB (3 h): 2.4 g/dL | TBIL (3 h): 0.074 mg/dL | TC (3 h): 60.8 mg/dL | TG (3 h): 50.2 mg/dL | TP (3 h): 5.1 g/dL | gamma-GTP (3 h): 1.6 IU/L | TERMINAL_BW (6 h): 198.5 g | APTT (6 h): 17.4 s | Bas (6 h): 0.2% | Eos (6 h): 0.8% | Fbg (6 h): 276.2 mg/dL | Hb (6 h): 13.3 g/dL | Ht (6 h): 41.6% | Lym (6 h): 79.4% | MCH (6 h): 20.5 pg | MCHC (6 h): 32% | MCV (6 h): 64.1 fL | Mono (6 h): 2.4% | Neu (6 h): 16.4% | PT (6 h): 13.5 s | Plat (6 h): 123.5 x10_4/uL | RBC (6 h): 649.6 x10_4/ul | Ret (6 h): 8% | WBC (6 h): 87.4 x10_2/uL | KIDNEY_L (6 h): 0.9 g | KIDNEY_R (6 h): 0.9 g | KIDNEY_TOTAL (6 h): 1.8 g | LIVER (6 h): 8.6 g | A/G (6 h): 0.9 | ALP (6 h): 1354.6 IU/L | ALT (6 h): 38.2 IU/L | AST (6 h): 78 IU/L | BUN (6 h): 9 mg/dL | CRE (6 h): 0.2 mg/dL | Ca (6 h): 10.7 mg/dL | Cl (6 h): 105 meq/L | DBIL (6 h): 0.01 mg/dL | GLC (6 h): 192.2 mg/dL | IP (6 h): 9.3 mg/dL | K (6 h): 4.3 meq/L | LDH (6 h): 105 IU/L | Na (6 h): 141.2 meq/L | PL (6 h): 128.6 mg/dL | RALB (6 h): 2.5 g/dL | TBIL (6 h): 0.072 mg/dL | TC (6 h): 72.2 mg/dL | TG (6 h): 53 mg/dL | TP (6 h): 5.2 g/dL | gamma-GTP (6 h): 1.8 IU/L | TERMINAL_BW (9 h): 200.2 g | APTT (9 h): 16.9 s | Bas (9 h): 0.2% | Eos (9 h): 1% | Fbg (9 h): 302.8 mg/dL | Hb (9 h): 13.3 g/dL | Ht (9 h): 41.6% | Lym (9 h): 74.2% | MCH (9 h): 19.8 pg | MCHC (9 h): 32% | MCV (9 h): 62 fL | Mono (9 h): 2.6% | Neu (9 h): 21.6% | PT (9 h): 13.5 s | Plat (9 h): 126.7 x10_4/uL | RBC (9 h): 670.8 x10_4/ul | Ret (9 h): 7.8% | WBC (9 h): 76.7 x10_2/uL | KIDNEY_L (9 h): 0.9 g | KIDNEY_R (9 h): 0.9 g | KIDNEY_TOTAL (9 h): 1.8 g | LIVER (9 h): 8.1 g | A/G (9 h): 0.9 | ALP (9 h): 1441.6 IU/L | ALT (9 h): 69 IU/L | AST (9 h): 70.4 IU/L | BUN (9 h): 7.6 mg/dL | CRE (9 h): 0.2 mg/dL | Ca (9 h): 10.7 mg/dL | Cl (9 h): 105.4 meq/L | DBIL (9 h): 0.006 mg/dL | GLC (9 h): 170.8 mg/dL | IP (9 h): 9.8 mg/dL | K (9 h): 3.9 meq/L | LDH (9 h): 132.4 IU/L | Na (9 h): 141.4 meq/L | PL (9 h): 125 mg/dL | RALB (9 h): 2.5 g/dL | TBIL (9 h): 0.074 mg/dL | TC (9 h): 70.8 mg/dL | TG (9 h): 61 mg/dL | TP (9 h): 5.3 g/dL | gamma-GTP (9 h): 1.4 IU/L | TERMINAL_BW (24 h): 216.8 g | APTT (24 h): 17.3 s | Bas (24 h): 0.4% | Eos (24 h): 1% | Fbg (24 h): 278 mg/dL | Hb (24 h): 13.3 g/dL | Ht (24 h): 41.1% | Lym (24 h): 76.4% | MCH (24 h): 20.7 pg | MCHC (24 h): 32.4% | MCV (24 h): 63.9 fL | Mono (24 h): 3.2% | Neu (24 h): 18.4% | PT (24 h): 13.1 s | Plat (24 h): 127.4 x10_4/uL | RBC (24 h): 642.4 x10_4/ul | Ret (24 h): 7.4% | WBC (24 h): 96.8 x10_2/uL | KIDNEY_L (24 h): 0.9 g | KIDNEY_R (24 h): 0.9 g | KIDNEY_TOTAL (24 h): 1.8 g | LIVER (24 h): 9.8 g | A/G (24 h): 0.9 | ALP (24 h): 1626.2 IU/L | ALT (24 h): 39.6 IU/L | AST (24 h): 77.2 IU/L | BUN (24 h): 14.6 mg/dL | CRE (24 h): 0.2 mg/dL | Ca (24 h): 10.9 mg/dL | Cl (24 h): 106.4 meq/L | DBIL (24 h): 0.012 mg/dL | GLC (24 h): 186.2 mg/dL | IP (24 h): 7.5 mg/dL | K (24 h): 4.2 meq/L | LDH (24 h): 98.2 IU/L | Na (24 h): 141.6 meq/L | PL (24 h): 140 mg/dL | RALB (24 h): 2.5 g/dL | TBIL (24 h): 0.058 mg/dL | TC (24 h): 74 mg/dL | TG (24 h): 96.8 mg/dL | TP (24 h): 5.4 g/dL | gamma-GTP (24 h): 1 IU/L
